# Tested on: a strain of at least one of the organisms listed (panel of Gram-positive organisms and Gram-negative strains)
# Assay: organism not typed
# Type: cell-based
# Conditions: read-out: MIC (minimum inhibitory concentration)
compound,measurement,value
"O=c1ccc2ccc(F)c3c2n1CC3CN1CCC(NC[C@H]2COc3ccnnc3O2)CC1 (mixture of isomers) [Example 62, (1R/S)-1-[(4-{[(7S)-6,7-dihydro[1,4]dioxino[2,3-c]pyridazin-7-ylmethyl]amino}-1-piperidinyl)methyl]-9-fluoro-1,2-dihydro-4H-pyrrolo[3,2,1-ij]quinolin-4-one]",MIC,≤ 4 µg/mL
